The values below come from patent publication US9464255B2, “Maleinized ester derivatives” (Elevance Renewable Sciences, Inc., priority 2013, dated 2016).

A short description of data set [1]: Viscosity index (ASTM D2270). Type of data set: physicochemical. The source says: The functional base oil may have a viscosity index (ASTM D2270) in the range from about 120 to about 250, or from about 130 to about 170.
Data set [2] can be described thus: Kinematic viscosity (KV). Type of data set: physicochemical. How it is done:
The maleinated ester derivatives may be biodegradable and may be used as functional base oils. The functional base oil may have a kinetic viscosity (ASTM D-445) in the range from about 2 to about 1000 cSt at 100° C., or from about 2 to about 500, or from about 2 to about 100, or from about 4 to about 10 cSt. The base oil may have a viscosity up to about 35 cSt at 100° C., or in the range from about 3 to about 35 cSt, or in the range from about 5 to about 35 cSt at 100° C.

The subject of data set [3] is microbial populations in the inoculum (activated sludge). Put plainly: Bacterial plate counts of reaction flask solutions at Day 28. The class given is cell-based. As to conditions: study termination. On the procedure:
Bacterial plate counts are performed on the prepared activated sludge prior to initiation and each replicate reaction flask solution at Day 28. A dilution series of each sample is prepared in sterile, pH 7.2, phosphate-buffered water at 10^−2, 10^−3, 10^−4, 10^−5, and 10^−6. Duplicate 1-mL aliquots of each dilution are directly analyzed by plate counting methods patterned after methods described in Standard Methods for the Examination of Water and Wastewater. (See, American Public Health Association (APHA), American Water Works Association (AWWA), and Water Environment Federation (WEF). 1998. Standard Methods for the Examination of Water and Wastewater, 20th Edition, Part 9215 B, Pour Plate Method). The bacterial growth medium is Plate Count Agar (Difco Laboratories). The plates of inocula are incubated at 26±2° C. for five to six days before counting the number of colonies on plates with fewer than 300 colonies. The number of colonies at the dilution coming closest to 300 colonies is used to calculate colony forming units (CFU)/mL for each sample.

The nature of data set [4]: Solubility in water (observation in the biodegradation test). The class given is physicochemical. The text has this:
At study initiation, DOC concentration in the test substance replicates is not detected. […] The increase in DOC concentration from Day 0 to Day 28 is likely due to the insolubility of the test substance in water (that is, more test substance likely went into solution while stirring over time). Consequently, DOC removal cannot be calculated for the test substance.

The test system of data set [5] is activated sludge (microbial inoculum). Put plainly: Aerobic biodegradability in water containing mineral salts and activated sludge (CO2 evolution, DOC). As to conditions: toxicity control >25% ThCO2 by day 6. On the procedure:
A maleinized ester derivative in the form of hydrogenated 1-pentyl triester of maleinated-9-dodecene methyl ester (hereinafter the “test substance”) is evaluated for aerobic biodegradability in water containing mineral salts and activated sludge. The activated sludge is taken from a wastewater treatment plant and is used as a source of microbial inoculum. The objectives of the study are: 1) to evaluate the biodegradability (mineralization to CO2 production) potential of the test substance in an aerobic, aqueous medium; and 2) to determine the mineralization potential of a reference chemical in order to assess the viability of the test inoculum.
Approximately one liter of activated sludge is used as the microbial inoculum. The sludge is collected from the Columbia Wastewater Plant in Columbia, Miss. This plant treats predominately domestic sewage.
An aqueous mineral salts medium provides essential mineral nutrients and trace elements necessary to sustain the inoculum throughout the test period. The mineral salts medium is prepared by addition of reagent grade salts to reagent water. […]
The CO2-free air is introduced into each flask by positive pressure, and the flow rates (50-100 mL/minute) are measured and adjusted using flow meters. […] Temperature of the chamber is continuously measured using a Rees Scientific temperature monitoring system. […]

With `CCCCCOC(=O)CCCCCC/C=C/C(CC)C(CC(=O)OCCCCC)C(=O)OCCCCC` (centres unmarked) [Example 1, Tri-pentanol ester of the maleinized methyl 9-dodecenoate], the “viscosity index (VI)” value in data set [1] is given as 128. In data set [1] (Table 1, ASTM D2270), the “Viscosity Index” value stood at 128. Moreover, in data set [2] (40° C.), the “KV (40° C.)” value is given as 24.73 cSt. For the same molecule, the “KV (100° C.)” value in data set [2] (100° C.) amounted to 5.0 cSt.
With `O=C([O-])c1ccccc1.[Na+]` [reference substance, sodium benzoate, reference compound], the bacterial plate count in data set [3] (single system) is reported as 1.4×10^4 CFU/mL.
For the molecule “hydrogenated 1-pentyl triester of maleinated-9-dodecene methyl ester [test substance]”, the solubility in water result in data set [4] was “insoluble in water”. In addition, the “inhibition of the inoculum (toxicity control)” value is given as “not be inhibitory” in data set [5] and “not inhibitory” in data set [5] (listed as triester). In data set [3], the “effect on the population of microbes” value is “no significant effect on the population of microbes”. Besides, the figures for the bacterial plate count in data set [3] (replicate A) and in data set [3] (replicate B) were 2.4×10^4 CFU/mL and 3.7×10^4 CFU/mL, respectively.
